ChEMBL document CHEMBL3867469, “Discovery of phenoxyindazoles and phenylthioindazoles as RORγ inverse agonists” (Bioorg Med Chem Lett, 2016)

What was measured:
[1] = molecular target: T1, Nuclear receptor ROR-gamma (Homo sapiens, UniProt P51449)
T1 sequence (P51449 whole entry): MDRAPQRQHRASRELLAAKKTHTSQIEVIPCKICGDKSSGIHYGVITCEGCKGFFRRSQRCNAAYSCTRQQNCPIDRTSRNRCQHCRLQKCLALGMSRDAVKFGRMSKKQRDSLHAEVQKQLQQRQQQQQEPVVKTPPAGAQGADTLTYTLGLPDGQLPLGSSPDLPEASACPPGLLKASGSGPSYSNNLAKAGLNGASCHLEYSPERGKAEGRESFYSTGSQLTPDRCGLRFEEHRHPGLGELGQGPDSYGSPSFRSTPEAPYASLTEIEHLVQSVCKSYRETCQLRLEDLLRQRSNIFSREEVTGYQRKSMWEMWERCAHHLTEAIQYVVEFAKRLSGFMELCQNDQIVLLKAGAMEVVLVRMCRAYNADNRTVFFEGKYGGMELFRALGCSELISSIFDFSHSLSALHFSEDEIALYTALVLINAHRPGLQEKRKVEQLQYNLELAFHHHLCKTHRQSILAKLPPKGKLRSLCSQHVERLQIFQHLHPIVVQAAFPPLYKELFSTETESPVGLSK
Description: Inverse agonist activity at GAL4 DBD-fused RORgammat LBD (unknown origin) expressed in HG5LN cells after 18 hrs by luciferase reporter gene assay

[2] = molecular target: T2, Retinoic acid receptor gamma (Homo sapiens, UniProt P13631)
T2 sequence (P13631 whole entry): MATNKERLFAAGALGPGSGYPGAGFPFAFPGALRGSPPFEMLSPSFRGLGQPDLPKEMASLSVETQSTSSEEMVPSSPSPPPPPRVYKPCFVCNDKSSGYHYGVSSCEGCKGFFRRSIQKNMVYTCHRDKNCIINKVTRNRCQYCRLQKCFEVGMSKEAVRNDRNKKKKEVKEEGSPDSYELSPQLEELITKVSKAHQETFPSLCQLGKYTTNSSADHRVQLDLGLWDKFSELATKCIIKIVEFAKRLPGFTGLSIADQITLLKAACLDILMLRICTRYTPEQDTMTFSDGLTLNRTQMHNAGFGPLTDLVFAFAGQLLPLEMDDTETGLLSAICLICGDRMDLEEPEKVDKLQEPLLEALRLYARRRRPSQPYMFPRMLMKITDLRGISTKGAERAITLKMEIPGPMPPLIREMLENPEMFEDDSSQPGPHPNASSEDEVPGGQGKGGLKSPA
Description: Inverse agonist activity at GAL4 DBD-fused RARgamma LBD (unknown origin) expressed in human HG5LN cells after 18 hrs by luciferase reporter gene assay

[3] = physchem; details: buffer, pH 6.5
[4] = in vitro; details: human, neonatal keratinocytes
Description: Photocytotoxicity against human neonatal keratinocytes assessed as decrease in cell viability by measuring ratio of IC50 in presence of UV to IC50 in absence of UV after 30 mins by neutral red dye based assay

Question: With CCS(=O)(=O)c1ccc(CC(=O)Nc2nc(-c3cccc(Cl)c3)c(C(=O)c3ccccc3Cl)s2)cc1 as the compound, how does the IC50 [1] read?
Answer: 0.08 µM

Question: And the IC50 [2]?
Answer: > 10 µM

Question: What about the logD [3] of the same compound?
Answer: 5.2

Question: Which results are given for CN(Cc1ccccc1)C(=O)c1ccc2c(c1)c(Sc1c(Cl)cccc1Cl)nn2-c1ccc(C(=O)O)cc1?
Answer: IC50 [1]: > 10 µM; IC50 [2]: > 10 µM; logD [3]: 2.9

Question: Which IC50 [1] does the source give for O=C(O)c1ccc(-n2nc(Sc3c(Cl)cccc3Cl)c3cc(C(=O)N4CCC4)ccc32)cc1 here?
Answer: 1.2 µM

Question: And the IC50 [2]?
Answer: 4.1 µM

Question: What about the logD [3] of the same compound?
Answer: 1.7

Question: Which results are given for Cc1ccccc1Sc1nn(-c2ccc(C(=O)O)cc2)c2ccc(C(=O)N(C)C)cc12?
Answer: IC50 [1]: > 10 µM; IC50 [2]: > 10 µM; logD [3]: 1.4

Question: With Cc1cc(C)c(Sc2nn(-c3ccc(C(=O)O)cc3)c3ccc(C(=O)N(C)C)cc23)c(C)c1 as the compound, how does the IC50 [1] read?
Answer: 2.7 µM

Question: And the IC50 [2]?
Answer: > 10 µM

Question: And the logD [3]?
Answer: 2.1

Question: Which IC50 [1] does the source give for CN(C)C(=O)c1ccc2c(c1)c(Sc1cc(Cl)ccc1Cl)nn2-c1ccc(C(=O)O)cc1 here?
Answer: 4.3 µM

Question: What about the IC50 [2] of the same compound?
Answer: > 10 µM

Question: What about the logD [3] of the same compound?
Answer: 1.9

Question: Which IC50 [1] does the source give for CN(C)C(=O)c1ccc2c(c1)c(Nc1c(Cl)cccc1Cl)nn2-c1ccc(C(=O)O)cc1 here?
Answer: 3.6 µM

Question: What about the IC50 [2] of the same compound?
Answer: > 10 µM

Question: And the logD [3]?
Answer: 0.9

Question: For Cc1cccc2c(Oc3c(Cl)cccc3Cl)nn(-c3ccc(C(=O)O)cc3)c12, which IC50 [1] is on record?
Answer: > 10 µM

Question: And the IC50 [2]?
Answer: > 10 µM

Question: What about the logD [3] of the same compound?
Answer: 2.6

Question: With CCN(C)C(=O)c1ccc2c(c1)c(Sc1c(Cl)cccc1Cl)nn2-c1ccc(C(=O)O)cc1 as the compound, how does the IC50 [1] read?
Answer: 6.5 µM

Question: And the IC50 [2]?
Answer: > 10 µM

Question: And the logD [3]?
Answer: 1.9

Question: For CN(CCO)C(=O)c1ccc2c(c1)c(Sc1c(Cl)cccc1Cl)nn2-c1ccc(C(=O)O)cc1, which IC50 [1] is on record?
Answer: > 10 µM

Question: What about the IC50 [2] of the same compound?
Answer: > 10 µM

Question: What about the logD [3] of the same compound?
Answer: 0.8

Question: Which IC50 [1] does the source give for CN(C)C(=O)c1ccc2c(-c3ccc(C(=O)O)cc3)nn(C(=O)c3c(Cl)cccc3Cl)c2c1 here?
Answer: 0.054 µM

Question: What about the IC50 [2] of the same compound?
Answer: > 10 µM

Question: What about the logD [3] of the same compound?
Answer: 1.3

Question: Which results are given for CN(C)C(=O)c1ccc2c(c1)c(Oc1c(Cl)cccc1Cl)nn2-c1ccc(C(=O)O)cc1?
Answer: IC50 [1]: 0.3 µM; IC50 [2]: > 10 µM; logD [3]: 1.5

Question: Which results are given for O=C(O)c1ccc(-n2nc(Sc3c(Cl)cccc3Cl)c3cc(C(=O)N4CCCC4)ccc32)cc1?
Answer: IC50 [1]: 2.6 µM; IC50 [2]: > 10 µM; logD [3]: 1.9

Question: Which IC50 [1] does the source give for O=C(O)c1ccc(-n2nc([S+]([O-])c3c(Cl)cccc3Cl)c3ccccc32)cc1 (stereo not given) here?
Answer: 6.2 µM

Question: What about the IC50 [2] of the same compound?
Answer: 5.6 µM

Question: And the logD [3]?
Answer: 1.2

Question: For CN1CCN(C(=O)c2ccc3c(c2)c(Sc2c(Cl)cccc2Cl)nn3-c2ccc(C(=O)O)cc2)CC1, which IC50 [1] is on record?
Answer: 9.2 µM

Question: What about the IC50 [2] of the same compound?
Answer: 7.7 µM

Question: What about the logD [3] of the same compound?
Answer: 1

Question: What does the source list for O=C(O)c1ccc(-n2nc(Nc3c(Cl)cccc3Cl)c3ccccc32)cc1?
Answer: IC50 [1]: 2.5 µM; IC50 [2]: > 10 µM; logD [3]: 1.9

Question: With CN(C)C(=O)c1ccc2c(c1)c(Sc1ccccc1)nn2-c1ccc(C(=O)O)cc1 as the compound, how does the IC50 [1] read?
Answer: > 10 µM

Question: And the IC50 [2]?
Answer: 3.5 µM

Question: What about the logD [3] of the same compound?
Answer: 1

Question: With O=C(O)c1ccc(-n2nc(Sc3c(Cl)cccc3Cl)c3cc(C(=O)N4CCOCC4)ccc32)cc1 as the compound, how does the IC50 [1] read?
Answer: 6 µM

Question: What about the IC50 [2] of the same compound?
Answer: 4.2 µM

Question: What about the logD [3] of the same compound?
Answer: 1.5

Question: For CNC(=O)c1ccc2c(c1)c(Sc1c(Cl)cccc1Cl)nn2-c1ccc(C(=O)O)cc1, which IC50 [1] is on record?
Answer: > 10 µM

Question: And the IC50 [2]?
Answer: 2.7 µM

Question: What about the logD [3] of the same compound?
Answer: 1.2

Question: Which IC50 [1] does the source give for O=C(O)c1ccc(-n2nc(Cc3c(Cl)cccc3Cl)c3ccccc32)cc1 here?
Answer: 1.8 µM

Question: What about the IC50 [2] of the same compound?
Answer: 6.8 µM

Question: And the logD [3]?
Answer: 2.8

Question: For O=C(O)c1ccc(-n2nc(Oc3c(Cl)cccc3Cl)c3ccccc32)cc1, which IC50 [1] is on record?
Answer: 0.14 µM

Question: And the IC50 [2]?
Answer: 1.4 µM

Question: What about the logD [3] of the same compound?
Answer: 2.8

Question: And the selectivity ratio at 0.5 h [4]?
Answer: > 62

Question: Which results are given for CN(c1c(Cl)cccc1Cl)c1nn(-c2ccc(C(=O)O)cc2)c2ccccc12?
Answer: IC50 [1]: > 10 µM; logD [3]: 2.6

Question: With Cc1ccc([C@@H](NC(=O)Cc2ccc3oc([C@@H](O)c4c(C)noc4C)cc3c2)c2ccccc2)c(C)c1 as the compound, how does the IC50 [1] read?
Answer: 0.044 µM

Question: And the IC50 [2]?
Answer: > 10 µM

Question: What about the logD [3] of the same compound?
Answer: 4.7

Question: With O=C(O)c1ccc(-n2nc(Sc3c(Cl)cccc3Cl)c3cc(C(=O)N4CC(F)(F)C4)ccc32)cc1 as the compound, how does the IC50 [1] read?
Answer: 0.72 µM

Question: And the IC50 [2]?
Answer: > 10 µM

Question: What about the logD [3] of the same compound?
Answer: 2.3

Question: Which IC50 [1] does the source give for O=C(O)c1ccc(-n2nc(S(=O)(=O)c3c(Cl)cccc3Cl)c3ccccc32)cc1 here?
Answer: 4.8 µM

Question: What about the IC50 [2] of the same compound?
Answer: 8.4 µM

Question: And the logD [3]?
Answer: 1.8
